Measured values: article PMC10809383, “Synthesis and migrastatic activity of cytochalasin analogues lacking a macrocyclic moiety” (RSC Medicinal Chemistry, 2023)
“Also recorded” adds a separate entry of the source.

Experiments:
[1] = tested on: human melanoma cell line BLM; experiment: Spheroid invasion assay (migrastatic activity); type: cell-based; details: 24 h
Procedure: Compounds 17, 20, and 22–30 were screened for their migrastatic activity using a spheroid invasion assay with the human melanoma cell line BLM.[46] Spheroids were formed and subsequently treated with cytochalasin analogues at a concentration of 10 μM for 24 h. CytB (1) and CytD (2) served as reference compounds for comparison. There was no significant increase in cell migration observed for any of the compounds tested. […] However, the effect was less profound than that of the reference compounds 1 and 2.
The spheroid invasion assay was performed following a previously published protocol.[63] Briefly, BLM cells were grown as spheroids using 3D Petri Dish (Microtissues). After 2 days of spheroid formation, 1.5 mg mL^−1 collagen solution (rat tail, collagen type I) was prepared (1.5 mg mL^−1 rat-tail collagen, 1× DMEM, 1% (v/v) FBS) and added at the bottom of a 96-well plate. Spheroids were embedded into the collagen (one spheroid per well) and covered with another layer of the gel. Collagen was polymerized at 37 °C and subsequently overlaid with a cultivation medium. Images of spheroids were taken with Leica TCS SP2 microscope (5×/0.15 dry objective; LAS X Life Science Microscope software) immediately after their seeding into collagen and again after 24 h. The area of the spheroids at 0 and 24 h was measured using FiJi (Rasband, W.S., ImageJ, NIH, Bethesda, MD, USA). Cellular invasiveness was determined as an increase in spheroid area within 24 h. Three independent experiments were conducted with at least 8 spheroids analysed in each experiment. Statistical analysis was performed in GraphPad using one-way ANOVA. For numeric data and representative images from this assay, see ESI, ^† Table S1 and Fig. S1.
Table S1: Spheroid invasion assay with BLM cell line at 10 µM concentration, 24 h.
Figure S1: Representative images of BLM cell spheroid invasion assay with or without
inhibitor. Images were taken at 0 h and 24 h. using a Leica TCS SP2 microscope (5x/0.15
dry objective). DMSO (first column) was used as a control. Scale bar 500 µm.

[2] = target: T1, actin (Oryctolagus cuniculus, UniProt P68135); experiment: Actin polymerization assay (pyrene-actin, Actin Polymerization Biochem Kit); type: biochemical; details: 10 μM, in vitro
T1 construct: purchased Cytoskeleton, Inc, Denver, CO
Procedure: To further ascertain the compounds' interference with actin polymerization, the active compounds, along with CytB (1) as a positive control and compound 26 as a negative control, were subjected to an in vitro actin polymerization assay (Fig. 2B). […] This correlation between actin inhibitory activity and migrastatic effect underscores the pivotal role of actin polymerization inhibition in mediating the observed migrastatic activity.
Actin polymerization assay was performed using Actin Polymerization Biochem Kit™ (Cytoskeleton, Inc, Denver, CO) according to the manufacturer protocol. Briefly, 25 μL of G-buffer containing labelled pyrene-actin (0.4 mg mL^−1) and 2.48 μL of either DMSO (10 μM, control) or inhibitor (10 μM) was added in […] well plate. Actin polymerization was initiated by the addition of 2.48 μL of 10× actin polymerization buffer and analysed in time until fluorescent signal plateau was reached using a spectrophotometer (Infinite 200 PRO, Tecan Life Sciences, Tecan Group Ltd., Zürich, CHE). The fluorescence emission intensity of actin polymerization was measured at 420 nm and 360 nm was used as excitation wavelength. Statistical analysis was performed in GraphPad using one-way ANOVA. Measurements were performed in three independent repetitions each consisting of at least three technical replicates. For a representative graph from this assay, see ESI, ^† Fig. S2.

[3] = tested on: HT1080 fibrosarcoma cells; experiment: Fluorescence microscopy of actin cytoskeleton (SPY650-FastAct time-lapse); type: cell-based; details: for effect on the actin cytoskeleton: 10 μM
Procedure: Next, we conducted experiments to assess the impact of compound 24, CytB (1) and CytD (2) on the actin cytoskeleton using fluorescence microscopy in HT1080 fibrosarcoma cells (Fig. 3). […] Therefore, we increased the concentration up to 50 μM.
HT1080 cells were seeded into 12-well glass bottom plate and stained with SPY650-FastAct™ following manufacturer's protocol. Untreated cells (control) were imaged every 20 s for 15 min using Leica TCS SP2 microscope (40×/0.6 dry objective). Afterwards, an inhibitor (compound 24 at 10 μM; 50 μM or compound 1 and 2 at 10 μM) was added into the same well and its effect was recorded for 15 min (20 s/image). All video recordings were analyzed using FiJi (Rasband, W.S., ImageJ, NIH, Bethesda, MD, USA).

[4] = tested on: human melanoma cells (BLM); experiment: WST-1 viability assay, BLM cells; type: cell-based
Procedure: (§1) In addition, the cytotoxic activity of compounds 17, 20, and 22–30 was assessed by the WST-1 viability assay using BLM (human melanoma) and MRC-5 (noncancerous human fibroblasts) cells growing in a monolayer (2D cultures, Table 2) after 72 h of treatment.
(§2) Human cells from melanoma (BLM) and human lung fibroblasts (MRC-5, Merck, USA) were used to evaluate in vitro cytotoxicity of the prepared compounds. The cells were maintained at the exponential phase of growth (passaging done by trypsin–EDTA solution) in DMEM and MEM, for BLM and MRC-5, respectively, with stable L-glutamine and supplemented with 10% fetal bovine serum (Thermo Fisher Scientific, USA). The cells were kept in an incubator at 37 °C, 5% CO2 in the atmosphere, and 95% humidity.
(§3) The compound cytotoxicity was determined by a WST-1 viability assay (Merck, USA). The amount of 5000 BLM and MRC-5 cells were seeded into individual wells of 96-well plates in 100 μL of cell cultivation media and maintained in an incubator for 16 h. After this period, the cells were treated with a concentration series (0–50 μM) of the tested compounds diluted in another 100 μL of cultivation media, which was added to the wells containing cells and incubated for 72 h. Then, BLM and MRC-5 cell viability was evaluated by WST-1 agent (5% v/v solution in phenol red-free DMEM media), i.e., the cell media was discarded and 100 μL of WST-1 solution was added. After 2 h incubation, the absorbance of formazan, derived from the WST-1 tetrazolium salt was determined spectrophotometrically at 450 nm (reference at 650 nm) by a UV-vis spectrophotometer (Bio-Rad, USA). Untreated cells, cells treated only with a vehicle, and cells treated with cytochalasin B (1) and D (2) served as controls. The measurement occurred in three independent repetitions each of which consisted of three technical replicates. The data were plotted as dose–response curves from which the half-maximal inhibitory concentrations (IC50) were calculated using AAT Bioquest.

[5] = tested on: human fibroblasts (MRC-5); experiment: WST-1 viability assay, MRC-5 cells; type: cell-based; details: MRC5, 72 h treatment, WST-1 assay, 2D culture, 0–50 μM
Procedure: as §1, §2, §3

Structure (SMILES): C=C1[C@@H](C)[C@H]2[C@H](Cc3ccccc3)NC(=O)[C@@]2(C(=O)OC)[C@@H](CCOCCc2ccccc2)[C@@H]1O [Compound 24, Methyl (1S,3aS,4R,5S,7S,7aR)-1-benzyl-5-hydroxy-7-methyl-6-methylene-3-oxo-4-(2-phenethoxyethyl)octahydro-3aH-isoindole-3a-carboxylate]
- migrastatic activity (cell migration, in words) ([1]; 10 μM, BLM spheroid invasion): significant in vitro migrastatic activity; also recorded: significant decrease in cell migration; also recorded: most potent migrastatic activity
- rel. spheroid area ([1]; 10 µM, BLM spheroids in collagen, DMSO control 1.02): 0.46
- inhibition of actin polymerization (in words) [2]: inhibit actin polymerization; also recorded: inhibition of actin polymerization
- effect on the actin cytoskeleton ([3]; after 5 min): observable alterations became apparent
- effect on the actin cytoskeleton ([3]; within 2 min of addition): no effect was observed
- change in cell morphology ([3]; 50 μM, after 2 min): visible change in cell morphology was observed
- IC50 ([4]; Homo sapiens, 72 h treatment, WST-1 assay, 2D culture, 0–50 μM): > 50 µM
- cytotoxicity (in words) ([4]; WST-1, up to 50 μM, cell line not given): non-cytotoxic
- IC50 [5]: > 50 µM
